Experimental data as given in US9169252B2 (BRISTOL-MYERS SQUIBB COMPANY, priority 2014, dated 2015).

Experiments:
[1] = test system: TLR2 induced IL-6 in peripheral blood mononuclear cells (PBMCs); assay: PBMC TLR2 Induced IL-6 Assay; format: cell-based, human; details: Homo sapiens, PBMC, PBMC TLR2 Induced IL-6 Assay, lipoteichoic acid stimulation, IL-6 by ELISA; for EC50: read-out: Cell EC50; for IC50: read-out: Cell IC50
Method in brief: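 Lipoteichoic acid at 10 µg/ml served as TLR2 stimulus for 5 hours, following a 30-minute compound pretreatment at 37° C. Cells were Ficoll-isolated human PBMCs, 250000 cells/well, cultured in RPMI plus 10% heat-inactivated FCS.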

[2] = biological target: IRAK4 (Homo sapiens (Human), UniProt Q9NWZ3); assay: IRAK4 Inhibition Assay; format: biochemical; details: IRAK4 Inhibition Assay; ATP 500 μM; read-out: IRAK4 IC50
Sequence of IRAK4 (Q9NWZ3 whole entry, species assumed): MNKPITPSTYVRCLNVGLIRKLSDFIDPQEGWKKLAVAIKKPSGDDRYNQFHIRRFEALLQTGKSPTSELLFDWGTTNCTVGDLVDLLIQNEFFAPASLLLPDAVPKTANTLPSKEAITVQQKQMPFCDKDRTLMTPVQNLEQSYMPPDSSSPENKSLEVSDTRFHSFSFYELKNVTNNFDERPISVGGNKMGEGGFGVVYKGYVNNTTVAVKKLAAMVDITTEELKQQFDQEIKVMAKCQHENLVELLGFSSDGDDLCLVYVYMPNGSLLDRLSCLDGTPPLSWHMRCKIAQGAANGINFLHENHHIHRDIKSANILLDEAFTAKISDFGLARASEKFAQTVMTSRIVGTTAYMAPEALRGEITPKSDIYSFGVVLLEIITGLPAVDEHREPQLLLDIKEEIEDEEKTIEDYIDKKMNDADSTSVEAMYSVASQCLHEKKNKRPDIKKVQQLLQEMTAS
Method in brief: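 Mobility-shift readout: fluorescent substrate and phosphoproduct resolved electrophoretically on Caliper LabChip 3000 after EDTA quench (35 mM). Enzyme reaction of IRAK4, substrates and test compound ran 60 min at room temperature.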

IC50 [2]	SMILES	EC50 [1]	IC50 [1]
0.0058 µM	CNC(=O)[C@H]1CC[C@H](NC(=O)c2cnc(-n3ncc4cc(C#N)cnc43)cc2NC(C)C)CC1 [Example 160, 6-(5-cyano-1H-pyrazolo[3,4-b]pyridin-1-yl)-4-(isopropylamino)-N-((trans)-4-(methylcarbamoyl)cyclohexyl)nicotinamide]	0.176 µM	
0.0068 µM	CC(C)Nc1cc(-n2ncc3cc(C#N)cnc32)ncc1C(=O)N[C@H]1CC[C@H](S(C)(=O)=O)CC1 [Example 161, 6-(5-cyano-1H-pyrazolo[3,4-b]pyridin-1-yl)-4-(isopropylamino)-N-((trans)-4-(methylsulfonyl)cyclohexyl)nicotinamide]	0.253 µM	
0.0038 µM	[2H]C([2H])([2H])NC(=O)[C@H]1CC[C@H](NC(=O)c2cnc(-n3ncc4cc(C#N)cnc43)cc2NC(C)C)CC1 [Example 162, 6-(5-cyano-1H-pyrazolo[3,4-b]pyridin-1-yl)-4-(isopropylamino)-N-((trans)-4-((^2H3)methylcarbamoyl)cyclohexyl)nicotinamide]	0.129 µM	
0.003 µM	CC(C)(O)[C@H](F)CNC(=O)c1cnc(-n2ncc3cc(C#N)cnc32)cc1NC1CCC(F)CC1 (stereo partly drawn) [Example 163, (R)-6-(5-cyano-1H-pyrazolo[3,4-b]pyridin-1-yl)-N-(2-fluoro-3-hydroxy-3-methylbutyl)-4-((4-fluorocyclohexyl)amino)nicotinamide]	0.081 µM	
0.0035 µM	CC(=O)N[C@H]1CC[C@H](NC(=O)c2cnc(-n3ncc4cc(C#N)cnc43)cc2NC(C)C)CC1 [Example 164, N-((trans)-4-acetamidocyclohexyl)-6-(5-cyano-1H-pyrazolo[3,4-b]pyridin-1-yl)-4-(isopropylamino) nicotinamide]	0.299 µM	
0.0091 µM	CC(C)Nc1cc(-n2ncc3cc(C#N)cnc32)ncc1C(=O)NC1CCc2nc(N)sc2C1 (centres unmarked) [Example 165, N-(2-amino-4,5,6,7-tetrahydrobenzo[d]thiazol-6-yl)-6-(5-cyano-1H-pyrazolo[3,4-b]pyridin-1-yl)-4-(isopropylamino)nicotinamide]	0.172 µM	
0.0046 µM	CC(C)Nc1cc(-n2ncc3cc(C#N)cnc32)ncc1C(=O)N[C@H]1CC[C@H](NS(C)(=O)=O)CC1 [Example 166, 6-(5-cyano-1H-pyrazolo[3,4-b]pyridin-1-yl)-4-(isopropylamino)-N-((trans)-4-(methylsulfonamido)cyclohexyl)nicotinamide]	0.192 µM	
0.0105 µM	CC(C)Nc1cc(-n2ncc3cc(C#N)cnc32)ncc1C(=O)NCC(F)(F)C(C)(C)O [Example 167, 6-(5-Cyano-1H-pyrazolo[3,4-b]pyridin-1-yl)-N-(2,2-difluoro-3-hydroxy-3-methylbutyl)-4-(isopropylamino)nicotinamide]	0.171 µM	
0.0131 µM	CC(C)Nc1cc(-n2ccc(-c3ccnnc3)n2)ncc1C(=O)NC[C@@H](F)C(C)(C)O [Example 168, (R)—N-(2-Fluoro-3-hydroxy-3-methylbutyl)-4-(isopropylamino)-6-(3-(pyridazin-4-yl)-1H-pyrazol-1-yl)nicotinamide]	0.305 µM	
0.0033 µM	CC(C)(O)[C@H](F)CNC(=O)c1cnc(-n2ncc3cc(C#N)cnc32)cc1NCC(F)(F)C(C)(C)O [Example 169, (R)-6-(5-Cyano-1H-pyrazolo[3,4-b]pyridin-1-yl)-4-((2,2-difluoro-3-hydroxy-3-methylbutyl)amino)-N-(2-fluoro-3-hydroxy-3-methylbutyl)nicotinamide]	0.204 µM	
0.0037 µM	CC(C)Nc1cc(-n2cnc3cnc(N)nc32)ncc1C(=O)NC[C@@H](F)C(C)(C)O [Example 171, (R)-6-(2-Amino-9H-purin-9-yl)-N-(2-fluoro-3-hydroxy-3-methylbutyl)-4-(isopropylamino)nicotinamide]	0.208 µM	0.587 µM
0.0025 µM	CC(C)Nc1cc(-n2cnc3cnc(NCCO)nc32)ncc1C(=O)NC[C@@H](F)C(C)(C)O [Example 172, (R)—N-(2-Fluoro-3-hydroxy-3-methylbutyl)-6-(2-((2-hydroxyethyl)amino)-9H-purin-9-yl)-4-(isopropylamino)nicotinamide]		10 µM
0.0033 µM	CC(C)Nc1cc(-n2ccc3cc(C#N)cnc32)ncc1C(=O)N[C@H]1CC[C@](F)(c2ccnn2C)CC1 [Example 174, 6-(5-Cyano-1H-pyrrolo[2,3-b]pyridin-1-yl)-N-((1s,4s)-4-fluoro-4-(1-methyl-1H-pyrazol-5-yl)cyclohexyl)-4-(isopropylamino)nicotinamide]	0.182 µM	
0.005 µM	CC(C)Nc1cc(-n2ccc3cc(C#N)cnc32)ncc1C(=O)N[C@H]1CC[C@](O)(c2nccs2)CC1 [Example 175, 6-(5-cyano-1H-pyrrolo[2,3-b]pyridin-1-yl)-N-((1s,4s)-4-hydroxy-4-(thiazol-2-yl)cyclohexyl)-4-(isopropylamino)nicotinamide]	0.113 µM	
0.0064 µM	CC(C)Nc1cc(-n2ccc3cc(C#N)cnc32)ncc1C(=O)N[C@H]1CC[C@](O)(c2nccn2C)CC1 [Example 176, 6-(5-cyano-1H-pyrrolo[2,3-b]pyridin-1-yl)-N-((1 s,4s)-4-hydroxy-4-(1-methyl-1H-imidazol-2-yl)cyclohexyl)-4-(isopropylamino) nicotinamide]	0.476 µM	
0.0036 µM	CC(C)Nc1cc(-n2ccc3cc(C#N)cnc32)ncc1C(=O)N[C@H]1CC[C@](O)(c2cccnc2)CC1 [Example 177, 6-(5-cyano-1H-pyrrolo[2,3-b]pyridin-1-yl)-N-((1s,4s)-4-hydroxy-4-(pyridin-3-yl)cyclohexyl)-4-(isopropylamino)nicotinamide]	0.352 µM	
0.0037 µM	CC(C)Nc1cc(-n2ccc3cc(C#N)cnc32)ncc1C(=O)N[C@H]1CC[C@](O)(c2ccccn2)CC1 [Example 178, 6-(5-cyano-1H-pyrrolo[2,3-b]pyridin-1-yl)-N-((1s,4s)-4-hydroxy-4-(pyridin-2-yl)cyclohexyl)-4-(isopropylamino)nicotinamide]	0.1 µM	
0.0028 µM	CC(C)Nc1cc(-n2ccc3cc(C#N)cnc32)ncc1C(=O)N[C@H]1CC[C@](O)(c2ccncc2)CC1 [Example 179, 6-(5-cyano-1H-pyrrolo[2,3-b]pyridin-1-yl)-N-((1 s,4s)-4-hydroxy-4-(pyridin-4-yl)cyclohexyl)-4-(isopropylamino)nicotinamide]	0.135 µM	
0.0053 µM	CC(C)Nc1cc(-n2ccc3cc(C#N)cnc32)ncc1C(=O)N[C@H]1CC[C@](F)(c2nccs2)CC1 [Example 180, 6-(5-cyano-1H-pyrrolo[2,3-b]pyridin-1-yl)-N-((1s,4s)-4-fluoro-4-(thiazol-2-yl)cyclohexyl)-4-(isopropylamino)nicotinamide]	0.208 µM	
0.0043 µM	CC(C)Nc1cc(-n2ccc3cc(C#N)cnc32)ncc1C(=O)N[C@H]1CC[C@](F)(c2nccn2C)CC1 [Example 181, 6-(5-cyano-1H-pyrrolo[2,3-b]pyridin-1-yl)-N-((1 s,4s)-4-fluoro-4-(1-methyl-1H-imidazol-2-yl)cyclohexyl)-4-(isopropylamino) nicotinamide]	0.152 µM	
